{
  "source": "patent US5254801A",
  "about": "“Heterologous dominant conditional lethal gene which is a phosphonate monoester hydrolase and use thereof in plants” (Monsanto Company, priority 1990, dated 1993)",
  "key": {"T12 crude extract": {"system": "T12 crude extract", "experiment": "In vitro radioactive hydrolysis assay in crude extracts", "assay_type": "biochemical", "conditions": "strain T12", "source_text": "(§1) The enzymatic reaction can be assayed using labelled (3-^14 C-) glyceryl glyphosate as a substrate and following the conversion to (3-^14 C-)glyphosate as a product using a high pressure liquid chromatography system with a radioactive detector. This assay is the most specific for the phosphonate monoester hydrolase enzymes useful for conditional cell lethality. An enzyme assay consists of 40,000 cpm of labelled (3-^14 C-) glyceryl glyphosate (obtained from NEN Biochemicals), the PEH sample in buffer and buffer to 100 μl final volume. The assay buffer is 10 mM Bis-Tris propane, pH 9.0, plus 100 mM KCl. The reaction is run for 1 hour at 30° C. and then stopped by the addition of 100 μl \"quench\" which is 100 mM sodium acetate, pH 5.5, in ethanol. The denatured protein is then spun down at 10,000 rpm in a microfuge and the supernatant transferred to an HPLC injection vial. A 100 μl aliquot is then injected onto an Synchropac AX100 anion exchange column 4.6×250 mm) pre-equilibrated in 65 mM potassium phosphate buffer, pH 5.5. The radioactive compounds are eluted isocratically for 15 min at 1 ml/min. The radioactivity of the peaks is measured and integrated by a post-column detector. Typically, the substrate elutes at 4.9 min and the product, glyphosate, at 9.7 min providing baseline separation. […] Alternatively, blank reactions can be included to determine the preexisting glyphosate contamination.\n(§2) Bacteria which grew in this medium using glyceryl glyphosate as a sole phosphate source had the ability to cleave both the ester and the phosphonate bond to release the free phosphate. For these bacteria to be useful in the present invention, the first step in the mineralization of glyceryl glyphosate needed is the hydrolysis of the phosphonate ester. Each of the three bacteria which utilized glyceryl glyphosate as a phosphate source were then assayed for a phosphonate monoester hydrolase activity using an in vivo (3-^14 C-) glyceryl glyphosate assay. A 150 ml culture of each bacteria was grown in DF minimal medium with 0.2 mM HK2 PO4 as a phosphate source in a 500 ml flask, 30° C., with shaking. The bacteria were pelleted by centrifugation at 5,000×g for 10 min and resuspended at 10 mg fresh weight/ml. An assay mix included 50 μl cells plus 10 μl (3-^14 C-) glyceryl glyphosate (10,000 cpm/μl) and kept at 30° C. with shaking. After a three hour incubation period, the cells were pelleted in a microfuge and the supernatant injected onto an HPLC anion exchange column and glyphosate analyzed as described above. The pellet was washed twice with 1 ml 10 mM HEPES, pH 7.0, and resuspended in 25 μl buffer. The cells were lysed with 25 μl quench and the debris pelleted in a microfuge. The pellet extract was then analyzed for glyphosate product as described above. […]"}, "LBAA crude extract": {"system": "LBAA crude extract", "experiment": "In vitro radioactive hydrolysis assay in crude extracts", "assay_type": "biochemical", "conditions": "strain LBAA", "source_text": "as §1, §2"}, "T10 crude extract": {"system": "T10 crude extract", "experiment": "In vitro radioactive hydrolysis assay in crude extracts", "assay_type": "biochemical", "conditions": "strain T10", "source_text": "as §1, §2"}, "[1]": {"system": "E. coli MM294, JM101, JM101/MPU+, SR200/MPU crude extract", "experiment": "In vitro radioactive hydrolysis assay in crude extracts", "assay_type": "biochemical", "conditions": "E. coli strains", "source_text": "as §1, §2"}, "PG2982": {"system": "PG2982", "experiment": "Growth on glyceryl glyphosate as sole phosphate source", "assay_type": "cell-based, Pseudomonas caryophilli", "conditions": "strain PG2982; 0.2 mM in DF minimal medium", "procedure": "Bacteria capable of degrading glyphosate are known (Hallas et al., 1988; Malik et al., 1989; and Moore et al., 1983; Heitkamp et al., 1990). Five of these bacteria (PG2482, LBAA, T10, T12 and CP4) and four strains of E. coli were screened for the rapid degradation of glyceryl glyphosate into inorganic phosphate. The bacteria were inoculated into 2 ml Dworkin-Foster(DF) minimal medium containing glucose, sodium gluconate and potassium citrate (each 0.1%) as carbon source and containing 0.2 mM glyceryl glyphosate as a phosphate source. The Dworkin-Foster minimal medium was made by combining 1 liter sterile H2 O with 1 ml each of A, B, C, E and F, 10 ml D, C-sources to final concentration of 0.1% each and P-source to 0.2 mM.\nBacteria which grew in this medium using glyceryl glyphosate as a sole phosphate source had the ability to cleave both the ester and the phosphonate bond to release the free phosphate. For these bacteria to be useful in the present invention, the first step in the mineralization of glyceryl glyphosate needed is the hydrolysis of the phosphonate ester. […] After a three hour incubation period, the cells were pelleted in a microfuge and the supernatant injected onto an HPLC anion exchange column and glyphosate analyzed as described above. […] The pellet extract was then analyzed for glyphosate product as described above. […]"}, "T10": {"system": "T10", "experiment": "In vivo (3-14C-) glyceryl glyphosate hydrolysis assay in whole cells", "assay_type": "cell-based", "conditions": "strain T10; three hour incubation, 30° C.", "procedure": "as §2"}, "LBAA": {"system": "LBAA", "experiment": "In vivo (3-14C-) glyceryl glyphosate hydrolysis assay in whole cells", "assay_type": "cell-based", "conditions": "strain LBAA; three hour incubation, 30° C.", "procedure": "as §2"}, "[2]": {"system": "pMON9429 transgenic Arabidopsis calli (pehA:1)", "experiment": "Callus viability on SIM medium with glyceryl glyphosate", "assay_type": "cell-based", "procedure": "(§3) Arabidopsis was cultured and transformed essentially as described by Valvekens et al., 1988. Arabidopsis ecotype RLD seeds were sterilized in 5% chlorox, 0.05%. Tween20 for 20 min, washed with sterile H2 O and plated on MSO medium (MS salts with minimal organics (Sigma), 0.5 g MES/l pH 5.7, 1% sucrose and 0.8% agar). After 3 weeks the roots were cut away from the shoots and precultured 3 days on callus inducing medium (CIM; Gamborg's B5 salts (Sigma), 2% glucose, 0.5 g/l MES, pH 5.7, 0.8% agar, 0.5 mg/l 2,4-D and 0.05 mg/l kinetin). The roots were than grouped in small bundles of 5-7 roots and cut into 0.5 cm pieces. The root pieces were mixed with a fresh overnight culture of ABI Agrobacterium containing a previously described plant gene expression vector diluted 1:20 in liquid MSO (without agar). After two minutes, the roots were transferred to fresh CIM plates for a two day co-culture. After co-culture, the root pieces were washed 2X with liquid MSO medium and plated on shoot inducing medium (SIM; Gamborg's B5 salts, 2% glucose, 0.5 g/l MES, pH 5.7, 5 mg/l N^6 -(2-isopentenyl)adenine, 0.15 mg/l indole-3-acetic acid, 500 mg/l carbenicillin, 100 mg/l kanamycin and 0.8% agar. Callus which continued to grow and remain green were transformed to fresh SIM after two weeks. As rosettes began to form, they were cut away from the callus and transferred to MSO medium with 1 mg/l indole-3-butyric acid in sterile sundae cups to initiate root formation. After the plants had formed roots they were transferred to soil and grown to maturity to obtain seed.\n(§4) Arabidopsis calli transformed with either pMON9429 or pMON9443 which were expressing the selectable marker NPT-II gene as evidenced by growth on 100 μg/ml kanamycin were then evaluated for pehA expression. The calli were transferred to SIM medium containing 100 μg/ml kanamycin and 1 mM glyceryl glyphosate. After 4 weeks, calli were scored for growth and ability to initiate shoots and leaves (+) or for necrosis (-)."}, "[3]": {"system": "pMON9443 transgenic Arabidopsis calli (pehA:2)", "experiment": "Callus viability on SIM medium with glyceryl glyphosate", "assay_type": "cell-based", "procedure": "as §3, §4"}, "[4]": {"system": "GUS vector control Arabidopsis calli", "experiment": "Callus viability on SIM medium with glyceryl glyphosate", "assay_type": "cell-based", "procedure": "as §3, §4"}, "[5]": {"conditions": "1 mM glyceryl glyphosate, 4 weeks, 6 lines scored"}, "[6]": {"conditions": "1 mM glyceryl glyphosate, 4 weeks, 12 lines scored"}},
  "data": [
    {"smiles": "O=C(O)CNCP(=O)(O)OCC(O)CO", "note": "(stereo not shown) [glyceryl glyphosate, glycine, N-([hydroxy (2,3 dihydroxy propoxy)phosphonyl]methyl)]", "values": [
      {"measurement": "Hydrolysis of Glyceryl Glyphosate into Glyphosate in Crude Extracts", "setting": "T12 crude extract", "value": "Yes"},
      {"measurement": "Hydrolysis of Glyceryl Glyphosate into Glyphosate in Crude Extracts", "setting": "LBAA crude extract", "value": "Yes"},
      {"measurement": "Hydrolysis of Glyceryl Glyphosate into Glyphosate in Crude Extracts", "setting": "T10 crude extract", "value": "No"},
      {"measurement": "Hydrolysis of Glyceryl Glyphosate into Glyphosate in Crude Extracts", "setting": "[1]", "value": "No"},
      {"measurement": "Glyceryl Glyphosate as Phosphate Source", "setting": "PG2982", "value": "Yes"},
      {"measurement": "In vivo Hydrolysis of Glyceryl Glyphosate into Glyphosate", "setting": "T10", "value": "Yes"},
      {"measurement": "In vivo Hydrolysis of Glyceryl Glyphosate into Glyphosate", "setting": "LBAA", "value": "Yes"},
      {"measurement": "Viability Score: Growth", "setting": "[2]; [5]", "value": "1 number of lines"},
      {"measurement": "Viability Score: Necrosis", "setting": "[2]; [5]", "value": "5 number of lines"},
      {"measurement": "Callus phenotype on protoxin (in words)", "setting": "[2]; medium containing glyceryl glyphosate, pMON9429 calli", "value": "lethality"},
      {"measurement": "Viability Score: Growth", "setting": "[3]; [5]", "value": "0 number of lines"},
      {"measurement": "Viability Score: Necrosis", "setting": "[3]; [5]", "value": "6 number of lines"},
      {"measurement": "Callus phenotype on protoxin (in words)", "setting": "[3]; medium containing glyceryl glyphosate, pMON9443 calli", "value": "lethality"},
      {"measurement": "Viability Score: Growth", "setting": "[4]; [6]", "value": "12 number of lines"},
      {"measurement": "Viability Score: Necrosis", "setting": "[4]; [6]", "value": "0 number of lines"},
      {"measurement": "Callus growth on protoxin (in words)", "setting": "[4]; 1 mM protoxin, control calli", "value": "able to grow"}
    ]}
  ]
}
